The compounds below were run against Mcl-1 protein (UniProtKB Q07820) (Homo sapiens (Human), UniProt Q07820) (assay: Inhibition of Mcl-1 by the fluorescence polarisation assay (Example A, Method A)). Conditions: fluorescence polarization assay.
Type: binding
Outline: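 Protein (5 nM) and fluorescein-tagged peptide tracer (1 nM) incubated with 11-point compound series for 2 h at room temperature in HEPES/NaCl/Tween 20 buffer, pH 7.4, 5% DMSO. Displacement read as decrease in polarisation; IC50 fitted by 4-parameter logistic, converted to Ki (cKi or eKi).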

Sequence of Mcl-1 protein (Q07820 whole entry): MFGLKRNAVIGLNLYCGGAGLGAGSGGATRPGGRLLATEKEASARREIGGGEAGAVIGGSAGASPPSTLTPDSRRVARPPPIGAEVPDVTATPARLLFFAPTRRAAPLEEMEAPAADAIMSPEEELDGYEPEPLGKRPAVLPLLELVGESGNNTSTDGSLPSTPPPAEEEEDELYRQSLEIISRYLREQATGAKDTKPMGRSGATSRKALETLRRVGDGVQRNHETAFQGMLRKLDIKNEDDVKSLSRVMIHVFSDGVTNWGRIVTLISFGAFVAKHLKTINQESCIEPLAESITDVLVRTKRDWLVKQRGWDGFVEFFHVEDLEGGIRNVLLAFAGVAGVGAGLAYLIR

| Structure (SMILES) | Ki |
| --- | --- |
| O=C(O)[C@]1(Nc2cccc(Cl)c2)CC[C@@]2(CC1)c1ccccc1CC2CCCOc1n[nH]c2c1CCCC2 (stereo partly shown) [Example 433, (1r,4r)-4-(3-chloroanilino)-2′-{3-[(4,5,6,7-tetrahydro-1H-indazol-3-yl)oxy]propyl}-2′,3′-dihydrospiro[cyclohexane-1,1′-indene]-4-carboxylic acid] | 1750 nM |
| Cc1cc(OCCCC2Cc3ccccc3C23CCC(Nc2cccc(Cl)c2)(C(=O)O)CC3)cc(C)c1Cl (stereo not shown) [Example 436, (1r,4r)-4-(3-chloroanilino)-2′-[3-(4-chloro-3,5-dimethylphenoxy)propyl]-2′,3′-dihydrospiro[cyclohexane-1,1′-indene]-4-carboxylic acid] | 918 nM |
| O=C(O)C1(Nc2cccc(Cl)c2)CCC2(CC1)c1ccccc1CC2CCCOc1ncnc2ccsc12 (stereo not shown) [Example 437, (1r,4r)-4-(3-chloroanilino)-2′-{3-[(thieno[3,2-d]pyrimidin-4-yl)oxy]propyl}-2′,3′-dihydrospiro[cyclohexane-1,1′-indene]-4-carboxylic acid] | 77.6 nM |
| COc1cncnc1OCCCC1Cc2ccccc2[C@]12CC[C@@](Nc1cccc(Cl)c1)(C(=O)O)CC2 (stereo partly shown) [Example 438, (1r,4r)-4-(3-chloroanilino)-2′-{3-[(5-methoxypyrimidin-4-yl)oxy]propyl}-2′,3′-dihydrospiro[cyclohexane-1,1′-indene]-4-carboxylic acid] | 202 nM |
| Cc1cncnc1OCCCC1Cc2ccccc2[C@]12CC[C@@](Nc1cccc(Cl)c1)(C(=O)O)CC2 (stereo partly shown) [Example 441, (1r,4r)-4-(3-chloroanilino)-2′-{3-[(5-methylpyrimidin-4-yl)oxy]propyl}-2′,3′-dihydrospiro[cyclohexane-1,1′-indene]-4-carboxylic acid] | 69.1 nM |
| O=C(O)[C@]1(Nc2cccc(Cl)c2)CC[C@@]2(CC1)c1ccccc1CC2CCCOc1cncnc1 (stereo partly shown) [Example 450, (1r,4r)-4-(3-chloroanilino)-2′-{3-[(pyrimidin-5-yl)oxy]propyl}-2′,3′-dihydrospiro[cyclohexane-1,1′-indene]-4-carboxylic acid] | 781 nM |
| Cc1cc(OCCCC2Cc3ccccc3[C@]23CC[C@@](Nc2cccc(Cl)c2)(C(=O)O)CC3)ccn1 (stereo partly shown) [Example 457, (1r,4r)-4-(3-chloroanilino)-2′-{3-[(2-methylpyridin-4-yl)oxy]propyl}-2′,3′-dihydrospiro[cyclohexane-1,1′-indene]-4-carboxylic acid] | 129 nM |
| O=C(O)C1(Nc2cccc(Cl)c2)CCC2(CC1)c1ccccc1CC2CCCOc1ncnc2c1CCCC2 (stereo not shown) [Example 460, (1r,4r)-4-(3-chloroanilino)-2′-{3-[(5,6,7,8-tetrahydroquinazolin-4-yl)oxy]propyl}-2′,3′-dihydrospiro[cyclohexane-1,1′-indene]-4-carboxylic acid] | 159 nM |
| CC1(C)CCc2ncnc(OCCCC3Cc4ccccc4[C@]34CC[C@@](Nc3cccc(Cl)c3)(C(=O)O)CC4)c21 (stereo partly shown) [Example 466, (1r,4r)-4-(3-chloroanilino)-2′-{3-[(5,5-dimethyl-6,7-dihydro-5H-cyclopenta[d]pyrimidin-4-yl)oxy]propyl}-2′,3′-dihydrospiro[cyclohexane-1,1′-indene]-4-carboxylic acid] | 56.6 nM |
| O=C(O)[C@]1(Nc2cccc(Cl)c2)CC[C@@]2(CC1)c1ccccc1CC2CCCOC1CCOCC1 (stereo partly shown) [Example 467, (1r,4r)-4-(3-chloroanilino)-2′-{3-[(oxan-4-yl)oxy]propyl}-2′,3′-dihydrospiro[cyclohexane-1,1′-indene]-4-carboxylic acid] | 746 nM |
| Cc1nc2c(c(OCCCC3Cc4ccccc4[C@]34CC[C@@](Nc3cccc(Cl)c3)(C(=O)O)CC4)n1)C(C)CC2 (stereo partly shown) [Example 468, (1r,4r)-4-(3-chloroanilino)-2′-{3-[(2,5-dimethyl-6,7-dihydro-5H-cyclopenta[d]pyrimidin-4-yl)oxy]propyl}-2′,3′-dihydrospiro[cyclohexane-1,1′-indene]-4-carboxylic acid] | 234 nM |
| O=C(O)[C@]1(Nc2cccc(Cl)c2)CC[C@@]2(CC1)c1ccccc1CC2CCCOC1CCOc2ccccc21 (stereo partly shown) [Example 471, (1r,4r)-4-(3-chloroanilino)-2′-{3-[(3,4-dihydro-2H-1-benzopyran-4-yl)oxy]propyl}-2′,3′-dihydrospiro[cyclohexane-1,1′-indene]-4-carboxylic acid] | 620 nM |
| O=C(O)[C@]1(Nc2cccc(Cl)c2)CC[C@@]2(CC1)c1ccccc1CC2CCCOc1ccnc2c1CCCC2F (stereo partly shown) [Example 473, (1r,4r)-4-(3-chloroanilino)-2′-{3-[(8-fluoro-5,6,7,8-tetrahydroquinolin-4-yl)oxy]propyl}-2′,3′-dihydrospiro[cyclohexane-1,1′-indene]-4-carboxylic acid] | 81.9 nM |
| O=C(O)[C@]1(Nc2cccc(Cl)c2)CC[C@@]2(CC1)c1ccccc1CC2CCCOc1ccnc2c1CCCC2O (stereo partly shown) [Example 474, (1r,4r)-4-(3-chloroanilino)-2′-{3-[(8-hydroxy-5,6,7,8-tetrahydroquinolin-4-yl)oxy]propyl}-2′,3′-dihydrospiro[cyclohexane-1,1′-indene]-4-carboxylic acid] | 96 nM |
| O=C(O)[C@]1(Nc2cccc(Cl)c2)CC[C@@]2(CC1)c1ccccc1CC2CCCOc1ccnc2c1CCC2O (stereo partly shown) [Example 475, (1r,4r)-4-(3-chloroanilino)-2′-{3-[(7-hydroxy-6,7-dihydro-5H-cyclopenta[b]pyridin-4-yl)oxy]propyl}-2′,3′-dihydrospiro[cyclohexane-1,1′-indene]-4-carboxylic acid] | 99.2 nM |
| O=C(O)[C@]1(Nc2cccc(Cl)c2)CC[C@@]2(CC1)c1ccccc1CC2CCCOc1ccnc2c1CCC2F (stereo partly shown) [Example 476, (1r,4r)-4-(3-chloroanilino)-2′-{3-[(7-fluoro-6,7-dihydro-5H-cyclopenta[b]pyridin-4-yl)oxy]propyl}-2′,3′-dihydrospiro[cyclohexane-1,1′-indene]-4-carboxylic acid] | 169 nM |

The remaining lines, values ahead:

| Ki | Structure (SMILES) |
| --- | --- |
| 38.9 nM | O=C(O)[C@]1(Nc2cccc(Cl)c2)CC[C@@]2(CC1)c1ccccc1CC2CCCOc1ccncc1F (stereo partly shown) [Example 432, (1r,4r)-4-(3-chloroanilino)-2′-{3-[(3-fluoropyridin-4-yl)oxy]propyl}-2′,3′-dihydrospiro[cyclohexane-1,1′-indene]-4-carboxylic acid] |
| 93.5 nM | O=C(O)[C@]1(Nc2cccc(Cl)c2)CC[C@]2(CC1)C(CCCOc1cccc3[nH]ccc13)=Cc1ccccc12 [Example 434, (1r,4r)-4-(3-chloroanilino)-2′-{3-[(1H-indol-4-yl)oxy]propyl}spiro[cyclohexane-1,1′-indene]-4-carboxylic acid] |
| 555 nM | O=C1CCc2c(OCCCC3Cc4ccccc4[C@]34CC[C@@](Nc3cccc(Cl)c3)(C(=O)O)CC4)cccc21 (stereo partly shown) [Example 435, (1r,4r)-4-(3-chloroanilino)-2′-{3-[(1-oxo-2,3-dihydro-1H-inden-4-yl)oxy]propyl}-2′,3′-dihydrospiro[cyclohexane-1,1′-indene]-4-carboxylic acid] |
| 106 nM | O=C(O)[C@]1(Nc2cccc(Cl)c2)CC[C@@]2(CC1)c1ccccc1CC2CCCOc1ccccc1C(F)(F)F (stereo partly shown) [Example 443, (1r,4r)-4-(3-chloroanilino)-2′-{3-[2-(trifluoromethyl)phenoxy]propyl}-2′,3′-dihydrospiro[cyclohexane-1,1′-indene]-4-carboxylic acid] |
| 134 nM | Cc1cc2nccc(OCCCC3Cc4ccccc4[C@]34CC[C@@](Nc3cccc(Cl)c3)(C(=O)O)CC4)c2s1 (stereo partly shown) [Example 446, (1r,4r)-4-(3-chloroanilino)-2′-{3-[(2-methylthieno[3,2-b]pyridin-7-yl)oxy]propyl}-2′,3′-dihydrospiro[cyclohexane-1,1′-indene]-4-carboxylic acid] |
| 127 nM | O=C(O)[C@]1(Nc2cccc(Cl)c2)CC[C@@]2(CC1)c1ccccc1CC2CCCOc1ccnc2ccoc12 (stereo partly shown) [Example 447, (1r,4r)-4-(3-chloroanilino)-2′-{3-[(furo[3,2-b]pyridin-7-yl)oxy]propyl}-2′,3′-dihydrospiro[cyclohexane-1,1′-indene]-4-carboxylic acid] |
| 141 nM | O=C(O)[C@]1(Nc2cccc(Br)c2)CC[C@]2(CC1)C(CCCOc1ccnc3ccsc13)=Cc1ccccc12 [Example 454, (1r,4r)-4-(3-bromoanilino)-2′-{3-[(thieno[3,2-b]pyridin-7-yl)oxy]propyl}spiro[cyclohexane-1,1′-indene]-4-carboxylic acid] |
| 1030 nM | O=C(O)[C@]1(Nc2ccccc2)CC[C@]2(CC1)C(CCCOc1ccnc3ccsc13)=Cc1ccccc12 [Example 455, (1r,4r)-4-anilino-2′-{3-[(thieno[3,2-b]pyridin-7-yl)oxy]propyl}spiro[cyclohexane-1,1′-indene]-4-carboxylic acid] |
| 104 nM | Cc1cncnc1OCCCC1=Cc2ccccc2[C@]12CC[C@@](Nc1cccc(Br)c1)(C(=O)O)CC2 [Example 456, (1r,4r)-4-(3-bromoanilino)-2′-{3-[(5-methylpyrimidin-4-yl)oxy]propyl}spiro[cyclohexane-1,1′-indene]-4-carboxylic acid] |
| 110 nM | Cc1c[nH]c2nccc(OCCCC3Cc4ccccc4[C@]34CC[C@@](Nc3cccc(Cl)c3)(C(=O)O)CC4)c12 (stereo partly shown) [Example 458, (1r,4r)-4-(3-chloroanilino)-2′-{3-[(3-methyl-1H-pyrrolo[2,3-b]pyridin-4-yl)oxy]propyl}-2′,3′-dihydrospiro[cyclohexane-1,1′-indene]-4-carboxylic acid] |
| 324 nM | O=C(O)[C@]1(Nc2cccc(Cl)c2)CC[C@@]2(CC1)c1ccccc1CC2CCCOc1cccc2[nH]cnc12 (stereo partly shown) [Example 469, (1r,4r)-2′-{3-[(1H-benzimidazol-4-yl)oxy]propyl}-4-(3-chloroanilino)-2′,3′-dihydrospiro[cyclohexane-1,1′-indene]-4-carboxylic acid] |
| 184 nM | O=C(O)[C@]1(Nc2cccc(Cl)c2)CC[C@@]2(CC1)c1ccccc1CC2CCCOc1cccc2c1CCN2 (stereo partly shown) [Example 470, (1r,4r)-4-(3-chloroanilino)-2′-{3-[(2,3-dihydro-1H-indol-4-yl)oxy]propyl}-2′,3′-dihydrospiro[cyclohexane-1,1′-indene]-4-carboxylic acid] |

— US20240150293A1, “SPIROCYCLOHEXANE DERIVATIVES, PHARMACEUTICAL COMPOSITIONS CONTAINING THEM AND THEIR USES AS ANTI-APOPTOTIC INHIBITORS” (LES LABORATOIRES SERVIER, priority 2021, published 2024)
